# Experimental data: patent US9702865B2, “System and method for high-content oncology assay” (RIGEL PHARMACEUTICALS, INC., priority 2002, dated 2017)
# How the values were obtained:
# Format in all cases: cell-based
# A549 cells [1] = experiment: cell proliferation assay (nuclei count, cell proliferation analysis module); settings: Homo sapiens; taxol-treated A549 cells, nuclei count vs concentration, FIG. 5
# From the text: The cell proliferation analysis module 58 provides information about the ability of cells to divide and proliferate. In general, the cell proliferation analysis module provides such information by counting the number of objects (typically nuclei) identified by the object identification module 57. In one embodiment, the cell proliferation analysis module […] can be used to screen for and/or identify candidate compounds having anti-proliferative activity. According to this embodiment, the proliferation of cells treated with or exposed to a candidate compound of interest can be monitored with the cell proliferation analysis module 58 of the invention. […] In a specific embodiment, samples of equal volume are collected from a cell culture as a function of time and analyzed for proliferation with the cell proliferation analysis module 58 of the invention. […]
# In another specific embodiment, adherent cells may be treated with different concentrations of test compound, permitted to incubate for a specified period time and then analyzed with the cell proliferation analysis module 58. Plotting the average number of cells in each sample well as a function of compound concentration provides a curve from which the anti-proliferative IC50 (or EC50) can be determined. […]
# in vitro = settings: human
# From the text: (§1) FIG. 9A illustrates one embodiment of processing steps associated with the operation of the cell death analysis module 62. The first processing step of FIG. 9A is to obtain luminescence intensity (LI) values corresponding to defined nuclei of cells captured by the image capture device (block 130), as described above. Based upon these LI values, the minimum nuclear luminescence intensity values (“MNLI”) are obtained (block 132). The MNLI value for a nucleus is the lowest LI value measured for that nucleus, for example, the lowest gray value of the pixels within a specific defined nucleus. At this point, the cell death analysis module 62 may compare the MNLI values of particular cells to a range of predefined MNLI values indicative of viable cells (block 134). A value falling outside this range identifies the cell as being non-viable or dead, whereas a value falling within this range identifies the cell as being viable or alive. Alternatively, the cell death analysis module 62 may be carried out with populations of cells, as illustrated in FIG. 9B. In this instance, MNLI values for a plurality of defined nuclei are obtained (block 142) based upon their LI values (block 140) and the percentage of cells having MNLI values falling outside a specified range of MNLI values is calculated (block 144). This percentage is then compared with a predefined percentage range indicative of a viable cell population (block 146). Cell populations having percentages falling within the predefined range are reported as viable populations, whereas percentages falling outside the predefined range are reported as non-viable populations.
# (§2) In one embodiment, the range of MNLI values indicative of viable cells may be calculated from control cell MNLI values using standard statistical analyses. For example, the MNLI values that bound a specified percentage or confidence interval, for example, 80%, 90%, 95% or a higher percentage, of the control cell MNLI values may be used as boundaries to defined the range of MNLI values indicative of viable cells. As this range is only exemplary, it will be appreciated that higher or lower percentages may be utilized. As a specified example, the MNLI values that bound 95% of the MNLI values using a standard statistical analysis yields good results. […] Once applied, the percentage of test cells falling within (or without) the range can be calculated to assess whether the cell population is viable or non-viable. […]
# (§3) The coordinates of these DMSO-treated cells form a tight band of MNLI values. Based on a statistical analysis, 95% of the MNLI values measured from this population fall within a range of 481 to 560 intensity units (i.e., within a range of […] from the statistical mean MNLI value). […]
# A549 cells [2] = experiment: in vitro; settings: FIG. 10
# From the text: as §1, §2, §3
SMILES,EC50 (A549 cells [1]) [nM],viability (in vitro) [%],induction of cell death (MNLI analysis and visual inspection of images) (A549 cells [2])
CC(=O)O[C@H]1C(=O)[C@@]2(C)[C@H]([C@H](OC(=O)c3ccccc3)[C@]3(O)C[C@H](OC(=O)[C@H](O)[C@@H](NC(=O)c4ccccc4)c4ccccc4)C(C)=C1C3(C)C)[C@]1(OC(C)=O)CO[C@@H]1C[C@@H]2O [taxol],2.2,83,induce cell death
COc1cc([C@@H]2c3cc4c(cc3[C@@H](O[C@@H]3O[C@@H]5CO[C@@H](C)O[C@H]5[C@H](O)[C@H]3O)[C@H]3COC(=O)[C@H]23)OCO4)cc(OC)c1O [etoposide],–,99.5,do not
